From US20210163976A1, “GENETICALLY ALTERED PLANTS EXPRESSING HETEROLOGOUS RECEPTORS THAT RECOGNIZE LIPO-CHITOOLIGOSACCHARIDES” (Aarhus Universitet, priority 2018, published 2021)

Target: T1, Medicago truncatula NFP ectodomain (NFP-ECD, residues 28-246), wild type, SEQ ID NO: 1 (Medicago truncatula, UniProt Q0GXS4)
T1 construct: The Medicago truncatula NFP ectodomain (residues 28-246); AcMNPV gp67 signal peptide (replaces native signal peptide 1-27) (N); hexa-histidine tag (C); made in house; host or cells: Sf9 cells (Spodoptera frugiperda), baculovirus
Assay: Microscale thermophoresis (MST) binding of NFP to carbohydrate ligands
Description: Expression and purification of Medicago NFP ectodomain: The Medicago truncatula NFP ectodomain (residues 28-246) was codon-optimized for insect cell expression (Genscript, Piscataway, USA) and cloned into the pOET4 baculovirus transfer vector (Oxford Expression Technologies). The native NFP signal peptide (residues 1-27, predicted by SignalP 4.1) was replaced with the AcMNPV gp67 signal peptide to facilitate secretion and a hexa-histidine tag was added to the C-terminus. Point mutants of NFP were engineered using site-directed mutagenesis. Recombinant baculoviruses were produced in Sf9 cells (Spodoptera frugiperda) using the FlashBac Gold kit (Oxford Expression technologies) according to the manufacturer's instructions with Lipofectin (ThermoFisher Scientific) as a transfection reagent. Protein expression was performed as follows. Suspension-cultured Sf9 cells were maintained with shaking at 299 K in serum-free MAX-XP (BD-Biosciences, discontinued) or HyClone SFX (GE Healthcare) medium supplemented with 1% Pen-Strep (10000 U/ml, Life technologies) and 1% CD lipid concentrate (Gibco). Protein expression was induced by adding recombinant passage 3 virus once the Sf9 cells reached a cell density of 1.0*10^7^6 cells/ml. After 5-7 days of expression, medium supernatant containing NFP ectodomains was harvested by centrifugation. This was followed by an overnight dialysis step against 50 mM Tris-HCl pH 8, 200 mM NaCl at 277 K. The NFP ectodomain was enriched by two subsequent steps of Ni-IMAC purification (HisTrap excel/HisTrap HP, both GE Healthcare). For crystallography experiments, N-glycans were removed using the endoglycosidase PNGase F (1:15 (w/w), room temperature, overnight). As a final purification step, NFP ectodomain was purified by SEC on a Superdex 200 10/300 or HiLoad Superdex 200 16/600 (both GE Healthcare) in phosphate buffered saline at pH 7.2 supplemented to a total of 500 mM NaCl (for binding assays) or 50 mM Tris-HCl, 200 mM NaCl (for crystallography). NFP ectodomain elutes as a single, homogeneous peak corresponding to a monomer. […]

T1 sequence (Q0GXS4 28-246): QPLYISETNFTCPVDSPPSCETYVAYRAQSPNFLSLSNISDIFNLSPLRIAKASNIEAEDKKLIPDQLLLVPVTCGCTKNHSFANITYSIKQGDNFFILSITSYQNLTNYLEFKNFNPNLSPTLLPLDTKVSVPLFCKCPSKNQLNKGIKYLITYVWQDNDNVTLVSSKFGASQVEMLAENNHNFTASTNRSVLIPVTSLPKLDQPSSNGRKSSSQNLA

SMILES	Binding to NFP (in words)	Kd (read-out: Dissociation constant (Kd)) [µM]
OC[C@H]1O[C@H](O[C@H]2[C@H](O)[C@@H](O)[C@@H](O[C@H]3[C@H](O)[C@@H](O)[C@@H](O[C@H]4[C@H](O)[C@@H](O)[C@@H](O[C@H]5[C@H](O)[C@@H](O)[C@@H](O[C@H]6[C@H](O)[C@@H](O)C(O)O[C@@H]6CO)O[C@@H]5CO)O[C@@H]4CO)O[C@@H]3CO)O[C@@H]2CO)[C@H](O)[C@@H](O)[C@@H]1O (some centres unmarked) [maltohexaose]	not able to bind	
CC(=O)N[C@H]1[C@H](O[C@H]2[C@H](O)[C@@H](NC(C)=O)C(O)O[C@@H]2CO)O[C@H](CO)[C@@H](O[C@@H]2O[C@H](CO)[C@@H](O[C@@H]3O[C@H](CO)[C@@H](O)[C@H](O)[C@H]3NC(C)=O)[C@H](O)[C@H]2NC(C)=O)[C@@H]1O (some centres unmarked) [CO4]		150
